{
  "source": "patent US9856218B2",
  "about": "“Inhibitors of PRMT5 and methods of their use” (Ohio State Innovation Foundation, priority 2013, dated 2018)",
  "key": {"[1]": {"test_system": "symmetrically dimethylated H3 (H3R8me2) and H4 (H4R3me2) in AML samples", "assay": "Western blotting of PRMT5 histone marks", "assay_type": "cell-based", "conditions": "FIG. 33B, listed as C12", "experimental": "Whole cell lysates were prepared by suspending cell pellets in RIPA buffer for 20 min (1% NP-40, 0.1% SDS, 150 mM NaCl, 50 mM Tris, pH 8.0), then supplemented with 1× complete EDTA free protease inhibitor (Roche) and 1× PhosStop (Roche). Lysates were separated by 4-20% SDS-PAGE and transferred to PVDF membrane (GE Healthcare, Piscataway, N.J.). Membranes were blocked with 5% milk or BSA in 1×TBS with 0.1% Tween 20 for 1 hour at room temperature with shaking. Primary antibodies for ACTIN, GAPDH and FLT3 (Santa Cruz Biotechnology, Santa Cruz Calif.), P65 (Cell signaling), PRMT5 and SP1 (Millipore), H4R3, H3R8, H3 and H4 (Abcam), were diluted 1:1000 or 1:2000 in 5% milk or BSA and incubated for 1-2 hr at room temperature. Membranes were washed using 1×TBS-T, incubated with HRP-conjugated secondary antibodies diluted in 1×TBS-T with 5% milk or BSA, washed, and developed using SuperSignal West Dura Chemiluminescent Substrate (Thermo Scientific). Whole cell lysate (at least 500 μg) was used to pull down protein complexes using Catch and Release v2.0 Reversible Immunoprecipitation System (Millipore) and ˜4 μg antibodies against PRMT5, SP1, p65 and 1 μg normal IgG as negative control (Millipore). Denatured pull down samples were subjected to regular western blotting with exception of using TrueBlot IP secondary antibody (Rockland) for immunodetection. […]"}, "[2]": {"target": "T1, affinity-purified hSWI/SNF associated Fl-PRMT7 (Homo sapiens, UniProt Q9NVM4)", "T1 construct": "made in house", "T1 sequence (Q9NVM4 whole entry)": "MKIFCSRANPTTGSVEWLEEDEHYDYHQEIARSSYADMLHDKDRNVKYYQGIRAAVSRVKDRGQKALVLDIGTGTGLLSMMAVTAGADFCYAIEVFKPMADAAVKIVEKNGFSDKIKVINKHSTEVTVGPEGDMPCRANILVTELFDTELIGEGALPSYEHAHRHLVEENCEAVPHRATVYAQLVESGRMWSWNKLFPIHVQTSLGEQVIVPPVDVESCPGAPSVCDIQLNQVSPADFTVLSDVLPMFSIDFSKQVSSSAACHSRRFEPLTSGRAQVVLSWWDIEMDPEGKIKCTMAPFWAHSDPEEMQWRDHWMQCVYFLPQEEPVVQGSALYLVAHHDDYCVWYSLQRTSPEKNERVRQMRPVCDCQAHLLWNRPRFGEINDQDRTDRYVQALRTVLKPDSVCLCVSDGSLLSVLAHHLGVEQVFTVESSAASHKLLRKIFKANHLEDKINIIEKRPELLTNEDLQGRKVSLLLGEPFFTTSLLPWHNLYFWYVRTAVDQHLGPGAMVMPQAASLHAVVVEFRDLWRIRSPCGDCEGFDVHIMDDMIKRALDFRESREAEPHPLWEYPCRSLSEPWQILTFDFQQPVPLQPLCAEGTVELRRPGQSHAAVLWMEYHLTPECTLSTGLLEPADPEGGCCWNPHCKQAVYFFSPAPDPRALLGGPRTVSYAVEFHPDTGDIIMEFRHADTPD", "assay": "Histone methyltransferase assay, [3H]SAM", "assay_type": "biochemical", "conditions": "FIG. 33A", "experimental": "(§1) Histone methylation was performed in the presence of DMSO, and 1-40 μM inhibitor compounds. […] After 1.5 h incubation at 30° C., reaction mixtures were spotted on Whatman P-81 filter paper, washed five times with 10 mL of […] sodium carbonate buffer (pH 9.0) to remove unincorporated [3H]SAM, and methylated peptides were detected by scintillation counting.\n(§2) Histone methylation was performed in the presence of DMSO, and 1-40 μM HLCL-32, HLCL-10, HLCL-61 and HLCL-64. […] After a 1.5 h incubation at 30° C. reaction mixtures were spotted on Whatman P-81 filter paper, washed five times with 10 mL of […] sodium carbonate buffer (pH 9.0) to remove unincorporated [^3H]SAM, and methylated peptides were detected by scintillation counting."}, "recombinant PRMT1": {"target": "T2, recombinant PRMT1 (Rattus norvegicus, UniProt Q63009)", "T2 construct": "purchased Millipore 14-474", "T2 sequence (Q63009 whole entry)": "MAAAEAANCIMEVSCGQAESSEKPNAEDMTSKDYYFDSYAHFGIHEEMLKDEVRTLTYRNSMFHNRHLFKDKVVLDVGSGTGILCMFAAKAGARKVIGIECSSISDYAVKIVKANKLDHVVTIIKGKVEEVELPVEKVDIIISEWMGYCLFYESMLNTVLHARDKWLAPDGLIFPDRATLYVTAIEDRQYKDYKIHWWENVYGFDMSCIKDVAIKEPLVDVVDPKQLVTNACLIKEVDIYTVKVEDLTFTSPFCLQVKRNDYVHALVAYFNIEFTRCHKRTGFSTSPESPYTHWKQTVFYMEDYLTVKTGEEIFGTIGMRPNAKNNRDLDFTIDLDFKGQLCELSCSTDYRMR", "assay": "Histone methyltransferase assay, [3H]SAM", "assay_type": "biochemical", "experimental": "as §1, §2"}, "recombinant PRMT4": {"target": "T3, recombinant PRMT4 (Mus musculus, UniProt Q9WVG6)", "T3 construct": "purchased Millipore 14-575", "T3 sequence (Q9WVG6 whole entry)": "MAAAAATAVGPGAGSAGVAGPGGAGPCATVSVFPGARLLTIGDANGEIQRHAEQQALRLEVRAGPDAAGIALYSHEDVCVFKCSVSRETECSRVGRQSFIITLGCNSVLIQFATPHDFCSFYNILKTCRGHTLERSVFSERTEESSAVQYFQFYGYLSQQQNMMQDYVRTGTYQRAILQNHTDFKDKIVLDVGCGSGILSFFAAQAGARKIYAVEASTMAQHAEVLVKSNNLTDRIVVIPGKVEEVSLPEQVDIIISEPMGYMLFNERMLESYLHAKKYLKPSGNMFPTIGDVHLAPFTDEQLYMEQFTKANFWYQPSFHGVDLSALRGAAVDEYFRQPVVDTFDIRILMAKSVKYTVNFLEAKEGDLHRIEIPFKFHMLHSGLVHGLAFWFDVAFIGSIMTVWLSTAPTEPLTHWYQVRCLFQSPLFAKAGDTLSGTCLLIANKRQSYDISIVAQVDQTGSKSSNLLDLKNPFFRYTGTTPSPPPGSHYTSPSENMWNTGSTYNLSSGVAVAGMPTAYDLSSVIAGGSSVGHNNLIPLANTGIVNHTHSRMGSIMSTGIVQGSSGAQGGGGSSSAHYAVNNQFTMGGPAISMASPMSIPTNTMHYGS", "assay": "Histone methyltransferase assay, [3H]SAM", "assay_type": "biochemical", "conditions": "FIG. 33A", "experimental": "as §1, §2"}, "[3]": {"test_system": "Mantle cell lymphoma cell line Jeko", "assay": "Induction of apoptosis, FITC-Annexin V-PI flow cytometry", "assay_type": "cell-based"}},
  "note": "Entries after “also recorded” stand apart in the source; their conditions may differ.",
  "data": [
    {"smiles": "CCn1c2ccccc2c2cc(CNCc3ccccc3OC)ccc21", "note": "[HLCL-61]", "values": [
      {"measurement": "methylation inhibition of histones H3 and H4", "setting": "[1]", "result": "most effective; also recorded: down-regulation of symmetrically dimethylated H3 (H3R8me2) and H4 (H4R3me2)"},
      {"measurement": "effect on PRMT7 enzymatic activity", "setting": "[2]", "result": "ineffectiveness"},
      {"measurement": "inhibition of PRMT1 enzyme", "setting": "recombinant PRMT1; 10 μM, FIG. 17B", "result": "this non-specific activity is lost"},
      {"measurement": "inhibition of PRMT1 enzyme", "setting": "recombinant PRMT1; 20 μM and above, FIG. 17A", "result": "non-specific inhibition"},
      {"measurement": "effect on PRMT1 enzymatic activity", "setting": "recombinant PRMT1; FIG. 33A", "result": "ineffectiveness"},
      {"measurement": "effect on PRMT4 enzymatic activity", "setting": "recombinant PRMT4", "result": "ineffectiveness"},
      {"measurement": "EC50", "setting": "[3]; 24 h", "result": 15, "unit": "µM"},
      {"measurement": "EC50", "setting": "[3]; 48 h", "result": 11, "unit": "µM"}
    ]}
  ]
}
